The values below come from US20220296676A1 (priority 2020, published 2022).

A short description of series [1]: in vitro. Conditions: human.
For series [2], the system named is human coronavirus (HCoV) 229E. Description: microbe, parasite or virus in culture. The conditions noted are these: MRC5, 72 h.
Series [3] can be described thus: in vitro. Conditions: human. The source holds these as a separate data set.

Consider `CCC(CC)COC(=O)[C@H](C)N[P@](=O)(OC[C@H]1O[C@@](C#N)(c2ccc3c(N)ncnn23)[C@H](O)[C@@H]1O)Oc1ccccc1` [Remdesivir, reference compound], for which the CC50 in the series “in vitro [1]” was 49.2 µM. In series [2], this molecule registered a concentration for a half-maximal effect (EC50) of 0.03 µM.

In turn, `C/C=C/C[C@@H](C)[C@@H](O)[C@H]1C(=O)N[C@@H](CC)C(=O)N(C)[C@H](SCCN(C)C)C(=O)N(C)[C@@H](CC(C)(C)O)C(=O)N[C@@H](C(C)C)C(=O)N(C)[C@@H](CC(C)C)C(=O)N[C@@H](C)C(=O)N[C@H](C)C(=O)N(C)[C@@H](CC(C)C)C(=O)N(C)[C@@H](CC(C)C)C(=O)N(C)[C@@H](C(C)C)C(=O)N1C` [WS-635] returned a CC50 at 3 days in the series “in vitro [1]” of 46.8 µM. The same molecule yielded a CC50 in the series “in vitro [3]” above 100 µM. This molecule also returned a concentration giving a half-maximal response (EC50) in series [2] of 5.16 µM.
